{"source": "patent US20180256541A1", "about": "“COMPOSITIONS HAVING ANTI-FUGETACTIC PROPERTIES FOR TREATMENT OF CANCER” (THE GENERAL HOSPITAL CORPORATION DBA MASSACHUSETTS GENERAL …, priority 2015, published 2018)", "key": {"[1]": {"system": "human CD3+ T cells", "details": "T cells pre-incubated with 0.01 μM to 10 mM AMD3100; tumor cells in Transwell; harvest after 3 h", "protocol": "For quantitative transmigration assays, purified human CD3^+ T cells (approximately 2×10^4 cells) are added to the upper chamber of a Transwell® insert in each well, to a total volume of 150 μl of Iscove's modified medium.\nTo determine the anti-fugetactic concentration of AMD3100, the T cells are incubated with 0.01 μM to 10 mM AMD3100 prior to addition to the chamber.\nCells are harvested from the lower chamber after 3 h, and cell counts are performed using a hemocytometer."}, "[2]": {"system": "human CD3+ T cells", "details": "CI of 1.0 is the control, triplicate wells", "protocol": "Freshly prepared and purified human CD3^+ T cells were prepared from healthy donor peripheral blood. 20,000 T cells were loaded into the upper chamber of the Transwell in control, chemotactic or fugetactic settings with AMD3100 at concentrations between 0.1 μM and 10 μM. Migrated cells were counted in the lower chamber and migration quantitated as previously described. Vianello et al. The Journal of Immunology, 2006, 176: 2902-2914; Righi et al., Cancer Res.; 71(16); 5522-34, each of which is incorporated herein in its entirety.\nWe saw clear evidence of binary or bimodal chemotactic (FIG. 1; CI 2.3 at 1 μM) and fugetactic (FIG. 2; CI=1.6 at 0.1 μM) responses of human CD3+ T cells to AMD3100 (where a CI or chemotactic index of 1.0 is the control). All wells were run in triplicate."}}}
{"smiles": "c1cc(CN2CCCNCCNCCCNCC2)ccc1CN1CCCNCCNCCCNCC1", "note": "[AMD3100, 1,1′-[1,4-phenylenebis(methylene)]bis [1,4,8,11-tetraazacyclotetradecane]]", "values": [{"measurement": "effect on T cell migration (anti-fugetactic at lower, fugetactic at higher concentrations)", "setting": "[1]", "result": "bimodal effect"}, {"measurement": "CI (chemotactic index), chemotactic response", "setting": "[2]; chemotactic setting, AMD3100 at 1 μM, FIG. 1", "result": 2.3}, {"measurement": "CI (chemotactic index), fugetactic response", "setting": "[2]; fugetactic setting, AMD3100 at 0.1 μM, FIG. 2", "result": 1.6}]}
